Assay results as given in paper PMC5218480 (PLoS ONE, 2017).

System: MV-4-11 cells
Assay: Gene expression microarray analysis (Affymetrix PrimeView) and GSEA
Format: cell-based, human
Set-up: RFU PODN (11730768_x_at) / Fold change /veh PODN (11730768_x_at) / RFU LINC00158 (11744669_a_at) / Fold change /veh LINC00158 (11744669_a_at) / RFU DUSP10 (11751237_a_at) / Fold change /veh DUSP10 (11751237_a_at) / RFU ID3 (11757404_x_at) / Fold change /veh ID3 (11757404_x_at) / RFU PLEKHG5 (11737974_s_at) / Fold change /veh PLEKHG5 (11737974_s_at) / RFU LRRC4B (11730491_at) / Fold change /veh LRRC4B (11730491_at) / RFU GIMAP4 (11747438_a_at) / Fold change /veh GIMAP4 (11747438_a_at) / RFU KRT8 (11758183_x_at) / Fold change /veh KRT8 (11758183_x_at) / RFU CNN1 (11734310_a_at) / Fold change /veh CNN1 (11734310_a_at) / RFU VPS37D (11726825_at) / Fold change /veh VPS37D (11726825_at) / RFU C10orf10 (11716522_x_at) / Fold change /veh C10orf10 (11716522_x_at) / RFU KIR2DL2 /// KIR2DL4 /// KIR2DL5A /// KIR2DL5B /// KIR2DS1 /// KIR2DS2 /// KIR2DS3 /// KIR2DS4 /// KIR3DL3 /// KIR3DL3 /// KIR3DS1 (11738374_at) / Fold change /veh KIR2DL2 /// KIR2DL4 /// KIR2DL5A /// KIR2DL5B /// KIR2DS1 /// KIR2DS2 /// KIR2DS3 /// KIR2DS4 /// KIR3DL3 /// KIR3DL3 /// KIR3DS1 (11738374_at) / RFU C1QL1 (11718748_at) / Fold change /veh C1QL1 (11718748_at) / RFU TMPRSS4 (11747572_a_at) / Fold change /veh TMPRSS4 (11747572_a_at) / RFU HAMP (11756126_x_at) / Fold change /veh HAMP (11756126_x_at) / RFU RNFT2 (11725882_a_at) / Fold change /veh RNFT2 (11725882_a_at) / RFU NR4A2 (11747474_a_at) / Fold change /veh NR4A2 (11747474_a_at) / RFU ABCC12 (11746883_a_at) / Fold change /veh ABCC12 (11746883_a_at) / RFU TMEM136 (11760407_x_at) / Fold change /veh TMEM136 (11760407_x_at) / RFU CLDN22 /// WWC2 (11732394_at) / Fold change /veh CLDN22 /// WWC2 (11732394_at) / RFU HLA-DPB1 (11760878_x_at) / Fold change /veh HLA-DPB1 (11760878_x_at) / RFU SPINT1 (11716480_a_at) / Fold change /veh SPINT1 (11716480_a_at) / RFU GAP43 (11754022_s_at) / Fold change /veh GAP43 (11754022_s_at) / RFU A4GNT (11735810_at) / Fold change /veh A4GNT (11735810_at) / RFU PRB3 (11715151_x_at) / Fold change /veh PRB3 (11715151_x_at) / RFU TUBB4B (11761932_at) / Fold change /veh TUBB4B (11761932_at) / RFU CAPN14 (11732068_a_at) / Fold change /veh CAPN14 (11732068_a_at) / RFU TMCC2 (11721928_a_at) / Fold change /veh TMCC2 (11721928_a_at) / RFU IRGQ (11745062_a_at) / Fold change /veh IRGQ (11745062_a_at) / RFU FAM174B (11720279_a_at) / Fold change /veh FAM174B (11720279_a_at) / RFU TMPRSS4 (11748680_a_at) / Fold change /veh TMPRSS4 (11748680_a_at) / RFU FAM212B (11763350_a_at) / Fold change /veh FAM212B (11763350_a_at) / RFU PLEKHG5 (11743358_a_at) / Fold change /veh PLEKHG5 (11743358_a_at) / RFU ZSCAN30 (11745921_a_at) / Fold change /veh ZSCAN30 (11745921_a_at) / RFU CMKLR1 (11741424_a_at) / Fold change /veh CMKLR1 (11741424_a_at) / RFU LOC101060620 /// MAPK8IP1 (11723275_at) / Fold change /veh LOC101060620 /// MAPK8IP1 (11723275_at) / RFU SPTSSB (11747773_x_at) / Fold change /veh SPTSSB (11747773_x_at) / RFU PRSS12 (11739890_at) / Fold change /veh PRSS12 (11739890_at) / RFU BIN1 (11741810_x_at) / Fold change /veh BIN1 (11741810_x_at) / RFU WNT11 (11732464_a_at) / Fold change /veh WNT11 (11732464_a_at) / RFU C10orf10 (11716521_a_at) / Fold change /veh C10orf10 (11716521_a_at) / RFU C5orf56 (11738089_at) / Fold change /veh C5orf56 (11738089_at) / RFU CYB561 (11721691_x_at) / Fold change /veh CYB561 (11721691_x_at) / RFU ANKRD19P (11752326_a_at) / Fold change /veh ANKRD19P (11752326_a_at) / RFU OR2T12 /// OR2T33 /// OR2T8 (11738714_s_at) / Fold change /veh OR2T12 /// OR2T33 /// OR2T8 (11738714_s_at) / RFU VCAN (11748164_a_at) / Fold change /veh VCAN (11748164_a_at) / RFU JSRP1 (11732532_at) / Fold change /veh JSRP1 (11732532_at) / RFU KRTAP10-11 (11738290_x_at) / Fold change /veh KRTAP10-11 (11738290_x_at) / RFU MYO3A (11730013_a_at) / Fold change /veh MYO3A (11730013_a_at) / RFU EBF3 (11725865_a_at) / Fold change /veh EBF3 (11725865_a_at) / RFU CAMK2N1 (11719241_x_at) / Fold change /veh CAMK2N1 (11719241_x_at) / RFU C5orf56 (11738088_a_at) / Fold change /veh C5orf56 (11738088_a_at) / RFU OLFML3 (11715873_a_at) / Fold change /veh OLFML3 (11715873_a_at) / RFU LOC100653217 /// NTM (11731650_a_at) / Fold change /veh LOC100653217 /// NTM (11731650_a_at) / RFU MAPK11 (11762145_a_at) / Fold change /veh MAPK11 (11762145_a_at) / RFU FIZ1 (11724087_x_at) / Fold change /veh FIZ1 (11724087_x_at) / RFU OASL (11726364_x_at) / Fold change /veh OASL (11726364_x_at) / RFU SOX15 (11748057_x_at) / Fold change /veh SOX15 (11748057_x_at) / RFU CD79A (11719716_a_at) / Fold change /veh CD79A (11719716_a_at) / RFU HIST1H1D (11736915_at) / Fold change /veh HIST1H1D (11736915_at) / RFU CASKIN2 (11723855_a_at) / Fold change /veh CASKIN2 (11723855_a_at) / RFU LOC730098 (11760151_x_at) / Fold change /veh LOC730098 (11760151_x_at) / RFU OR4N2 (11742367_at) / Fold change /veh OR4N2 (11742367_at) / RFU PRRT2 (11749266_a_at) / Fold change /veh PRRT2 (11749266_a_at) / RFU SNX32 (11753110_a_at) / Fold change /veh SNX32 (11753110_a_at) / RFU CDHR5 (11726645_a_at) / Fold change /veh CDHR5 (11726645_a_at) / RFU RCAN1 (11760418_a_at) / Fold change /veh RCAN1 (11760418_a_at) / RFU FAM167A (11723789_a_at) / Fold change /veh FAM167A (11723789_a_at) / RFU FAM26E (11764081_at) / Fold change /veh FAM26E (11764081_at) / RFU ISYNA1 (11749810_s_at) / Fold change /veh ISYNA1 (11749810_s_at) / RFU ACY1 (11761880_at) / Fold change /veh ACY1 (11761880_at) / RFU 11764098_at / Fold change /veh 11764098_at / RFU SAMD14 (11745864_x_at) / Fold change /veh SAMD14 (11745864_x_at) / RFU NPB (11741838_a_at) / Fold change /veh NPB (11741838_a_at) / RFU TMPRSS6 (11731388_a_at) / Fold change /veh TMPRSS6 (11731388_a_at) / RFU KRTAP10-2 (11738614_at) / Fold change /veh KRTAP10-2 (11738614_at) / RFU ARHGAP8 /// PRR5-ARHGAP8 (11727945_x_at) / Fold change /veh ARHGAP8 /// PRR5-ARHGAP8 (11727945_x_at) / RFU KRTAP5-7 /// NADSYN1 (11734609_at) / Fold change /veh KRTAP5-7 /// NADSYN1 (11734609_at) / RFU RASL12 (11751679_a_at) / Fold change /veh RASL12 (11751679_a_at) / RFU CDKN2B (11736163_a_at) / Fold change /veh CDKN2B (11736163_a_at) / RFU PRF1 (11729649_at) / Fold change /veh PRF1 (11729649_at) / RFU, ZNF638 /// ZNF638-IT1 / Fold change vs veh, ZNF638 /// ZNF638-IT1 / RFU, PANK3 / Fold change vs veh, PANK3 / RFU, SH3YL1 / Fold change vs veh, SH3YL1 / RFU, ZEB2 / Fold change vs veh, ZEB2 / RFU, NRIP1 / Fold change vs veh, NRIP1 / RFU, PTTG1IP / Fold change vs veh, PTTG1IP / RFU, CAPN2 / Fold change vs veh, CAPN2 / RFU, MED14 / Fold change vs veh, MED14 / RFU, SNORA58 / Fold change vs veh, SNORA58 / RFU, C1orf63 / Fold change vs veh, C1orf63 / RFU, LRRFIP1 / Fold change vs veh, LRRFIP1 / RFU, NDUFAF7 / Fold change vs veh, NDUFAF7 / RFU, SLC12A2 / Fold change vs veh, SLC12A2 / RFU, IBTK / Fold change vs veh, IBTK / RFU, ESF1 / Fold change vs veh, ESF1 / Fold change vs veh, TMEM50B / RFU, TAOK1 / Fold change vs veh, TAOK1 / RFU, ACBD3 / Fold change vs veh, ACBD3 / RFU, TMA16 / Fold change vs veh, TMA16 / RFU, RWDD3 / Fold change vs veh, RWDD3 / RFU, BCAT1 / Fold change vs veh, BCAT1 / RFU, EDEM3 / Fold change vs veh, EDEM3 / RFU, TMEM33 / Fold change vs veh, TMEM33 / RFU, WDR75 / Fold change vs veh, WDR75 / RFU, AHCTF1 / Fold change vs veh, AHCTF1 / RFU, TFRC / Fold change vs veh, TFRC / RFU, ZDHHC17 / Fold change vs veh, ZDHHC17 / RFU, NOM1 / Fold change vs veh, NOM1 / RFU, ARL8B / Fold change vs veh, ARL8B / RFU, ZBTB11 / Fold change vs veh, ZBTB11 / RFU, TAMM41 / Fold change vs veh, TAMM41 / RFU, KIAA1704 /// LOC100996395 / Fold change vs veh, KIAA1704 /// LOC100996395 / RFU, ING1 / Fold change vs veh, ING1 / RFU, TRMT61B / Fold change vs veh, TRMT61B / RFU, FUBP3 / Fold change vs veh, FUBP3 / RFU, TP53 / Fold change vs veh, TP53 / RFU, TNKS2 / Fold change vs veh, TNKS2 / RFU, ZFP14 / Fold change vs veh, ZFP14 / RFU, ACTR2 / Fold change vs veh, ACTR2 / RFU, PPP3R1 / Fold change vs veh, PPP3R1 / RFU, PIK3R1 / Fold change vs veh, PIK3R1 / RFU, HNRNPA1 / Fold change vs veh, HNRNPA1 / RFU, RNF170 / Fold change vs veh, RNF170 / RFU, ZNF28 / Fold change vs veh, ZNF28 / RFU, RNGTT / Fold change vs veh, RNGTT / RFU, OGT / Fold change vs veh, OGT / RFU, BRD1 / Fold change vs veh, BRD1 / RFU, MARS / Fold change vs veh, MARS / RFU, ZNF655 / Fold change vs veh, ZNF655 / RFU, FAHD1 / Fold change vs veh, FAHD1 / RFU, BDP1 / Fold change vs veh, BDP1 / RFU, LRRCC1 / Fold change vs veh, LRRCC1 / RFU, ARID1A / Fold change vs veh, ARID1A / RFU, ZNF146 / Fold change vs veh, ZNF146 / RFU, ZNF330 / Fold change vs veh, ZNF330 / RFU, GPN3 / Fold change vs veh, GPN3 / RFU, C9orf123 / Fold change vs veh, C9orf123 / RFU, N4BP2L2 / Fold change vs veh, N4BP2L2 / RFU, ARFIP1 / Fold change vs veh, ARFIP1 / RFU, FAM179B / Fold change vs veh, FAM179B / RFU, BCL10 / Fold change vs veh, BCL10 / RFU, UHRF1BP1L / Fold change vs veh, UHRF1BP1L / RFU, BET1 / Fold change vs veh, BET1 / RFU, CNOT2 / Fold change vs veh, CNOT2 / RFU, ZNF268 / Fold change vs veh, ZNF268 / Fold change vs veh, ZNF507 / RFU, DGCR2 / Fold change vs veh, DGCR2 / RFU, WDSUB1 / Fold change vs veh, WDSUB1 / Fold change vs veh, HSP90B1 /// MIR3652 / RFU, ADSS / Fold change vs veh, ADSS / RFU, GK / Fold change vs veh, GK / RFU, ZNF148 / Fold change vs veh, ZNF148 / RFU, TAF9 / Fold change vs veh, TAF9 / RFU, SLC1A5 / Fold change vs veh, SLC1A5 / RFU, SLMO2 / Fold change vs veh, SLMO2 / RFU, ABCC4 / Fold change vs veh, ABCC4 / RFU, LOC101060439 /// RAP1B / Fold change vs veh, LOC101060439 /// RAP1B / RFU, RFX7 / Fold change vs veh, RFX7 / RFU, GTPBP10 / Fold change vs veh, GTPBP10 / RFU, CNEP1R1 / Fold change vs veh, CNEP1R1 / RFU, BIVM-ERCC5 /// ERCC5 / Fold change vs veh, BIVM-ERCC5 /// ERCC5 / RFU, ILF3 / Fold change vs veh, ILF3 / RFU 11762660_at / Fold change /veh 11762660_at / RFU VCAN (11757783_s_at) / Fold change /veh VCAN (11757783_s_at) / RFU DDX43 (11728927_at) / Fold change /veh DDX43 (11728927_at) / RFU KRT8 (11758188_x_at) / Fold change /veh KRT8 (11758188_x_at) / RFU NKD1 (11759106_at) / Fold change /veh NKD1 (11759106_at) / RFU SRD5A1 (11742802_a_at) / Fold change /veh SRD5A1 (11742802_a_at) / RFU TPSAB1 /// TPSB2 (11721975_s_at) / Fold change /veh TPSAB1 /// TPSB2 (11721975_s_at) / RFU GSTM3 (11746129_a_at) / Fold change /veh GSTM3 (11746129_a_at) / RFU IL23R (11737362_x_at) / Fold change /veh IL23R (11737362_x_at) / RFU TMEM51 (11727254_a_at) / Fold change /veh TMEM51 (11727254_a_at) / RFU PIWIL2 (11732686_x_at) / Fold change /veh PIWIL2 (11732686_x_at) / RFU ORM1 (11744905_x_at) / Fold change /veh ORM1 (11744905_x_at) / RFU CCDC152 (11743942_at) / Fold change /veh CCDC152 (11743942_at) / RFU ECM1 (11717891_a_at) / Fold change /veh ECM1 (11717891_a_at) / RFU IL23R (11748794_a_at) / Fold change /veh IL23R (11748794_a_at) / RFU TNFAIP8L3 (11732012_x_at) / Fold change /veh TNFAIP8L3 (11732012_x_at) / RFU MBOAT4 (11741988_at) / Fold change /veh MBOAT4 (11741988_at) / RFU 11764193_at / Fold change /veh 11764193_at / RFU TMEM53 (11763286_at) / Fold change /veh TMEM53 (11763286_at) / RFU MAGEB2 (11727129_at) / Fold change /veh MAGEB2 (11727129_at) / RFU TMEM200A (11744735_a_at) / Fold change /veh TMEM200A (11744735_a_at) / RFU CCDC152 (11751479_a_at) / Fold change /veh CCDC152 (11751479_a_at) / RFU FAM211A (11726209_a_at) / Fold change /veh FAM211A (11726209_a_at) / RFU RGS16 (11746705_a_at) / Fold change /veh RGS16 (11746705_a_at) / RFU VCAN (11755009_s_at) / Fold change /veh VCAN (11755009_s_at) / RFU RHOB (11743442_s_at) / Fold change /veh RHOB (11743442_s_at) / RFU RGS16 (11720943_a_at) / Fold change /veh RGS16 (11720943_a_at) / RFU RGS16 (11720944_at) / Fold change /veh RGS16 (11720944_at) / RFU, VPS4B / Fold change vs veh, VPS4B / RFU, CREB1 / Fold change vs veh, CREB1 / RFU, DNAJC13 / Fold change vs veh, DNAJC13 / RFU, GNAQ / Fold change vs veh, GNAQ / RFU, CDK5R1 / Fold change vs veh, CDK5R1 / RFU, ZRANB3 / Fold change vs veh, ZRANB3 / RFU, CUL4A / Fold change vs veh, CUL4A / RFU, CCNY / Fold change vs veh, CCNY / RFU, UFL1 / Fold change vs veh, UFL1 / RFU, COG3 / Fold change vs veh, COG3 / RFU, DIAPH2 / Fold change vs veh, DIAPH2 / RFU, SKA2 / Fold change vs veh, SKA2 / RFU, AFF3 / Fold change vs veh, AFF3 / RFU, LMF1 / Fold change vs veh, LMF1 / RFU, IPO11 / Fold change vs veh, IPO11 / RFU, DFFB / Fold change vs veh, DFFB / RFU, FOXP1 / Fold change vs veh, FOXP1 / RFU, CARD8 / Fold change vs veh, CARD8 / RFU, STRN3 / Fold change vs veh, STRN3 / RFU, ADK / Fold change vs veh, ADK / RFU, RASSF2 / Fold change vs veh, RASSF2 / RFU, WIPF1 / Fold change vs veh, WIPF1 / RFU, LARP1B / Fold change vs veh, LARP1B / RFU, RASA1 / Fold change vs veh, RASA1 / RFU, RB1 / Fold change vs veh, RB1 / RFU, PPFIA1 / Fold change vs veh, PPFIA1 / RFU, MAT2A / Fold change vs veh, MAT2A / RFU, CCT5 / Fold change vs veh, CCT5 / RFU, WDR92 / Fold change vs veh, WDR92 / RFU, CUX1 / Fold change vs veh, CUX1 / RFU, TTC7A / Fold change vs veh, TTC7A / RFU, TMEM135 / Fold change vs veh, TMEM135 / RFU, DEPTOR / Fold change vs veh, DEPTOR / RFU, CPM / Fold change vs veh, CPM / RFU, DNAJB6 / Fold change vs veh, DNAJB6 / RFU, CACNA2D3 / Fold change vs veh, CACNA2D3 / RFU, DTX4 / Fold change vs veh, DTX4 / RFU, TFCP2 / Fold change vs veh, TFCP2 / RFU, GMCL1 /// GMCL1P1 / Fold change vs veh, GMCL1 /// GMCL1P1 / RFU, AEBP2 / Fold change vs veh, AEBP2 / RFU, SNHG1 /// SNORD22 /// SNORD25 /// SNORD26 /// SNORD27 /// SNORD28 /// SNORD29 /// SNORD31 / Fold change vs veh, SNHG1 /// SNORD22 /// SNORD25 /// SNORD26 /// SNORD27 /// SNORD28 /// SNORD29 /// SNORD31 / Fold change (Aza/veh), C12orf56 (ProbeSet 11735607_a_at) / Fold change (ACY-1035/veh), C12orf56 (ProbeSet 11735607_a_at) / Fold change (Aza/veh), FGFR1OP (ProbeSet 11751329_s_at) / Fold change (ACY-1035/veh), FGFR1OP (ProbeSet 11751329_s_at) / Fold change (Aza/veh), VPS36 (ProbeSet 11739960_a_at) / Fold change (ACY-1035/veh), VPS36 (ProbeSet 11739960_a_at) / RFU SYPL1 (11715823_x_at) / Fold change /veh SYPL1 (11715823_x_at) / RFU IGFBP7 (11715501_s_at) / Fold change /veh IGFBP7 (11715501_s_at) / RFU REEP3 (11722064_at) / Fold change /veh REEP3 (11722064_at) / RFU IGLL1 (11728026_x_at) / Fold change /veh IGLL1 (11728026_x_at): dose or concentration left out as unconfirmed
Settings: MV-4-11 cells, 48 hours

Nc1ncn([C@@H]2O[C@H](CO)[C@@H](O)[C@H]2O)c(=O)n1 [azacitidine]
Fold change /veh LOC100653217 /// NTM (11731650_a_at): 1.16
